# Source: patent US8592456B2 (4SC Discovery GmbH, priority 2011, dated 2013)
# Where two headings read alike, the source gives them in different places.
# Tested on: PBMC (T cell proliferation)
# Experiment: T cell proliferation assay, PHA-stimulated human PBMC (BrdU ELISA)
# Assay type: cell-based
# Conditions: 48 hours, BrdU
# Protocol: Cell proliferation was analysed using the BrdU based cell proliferation ELISA from Roche (Mannheim, Germany) according to the manufacturer's instructions.
# T Cell Proliferation Assay
# Peripheral blood mononuclear cells (PBMC) from healthy human donors were isolated by centrifugation over Ficoll-Hypaque (Sigma-Aldrich, Germany) according to manufacturer's instructions. Purified PBMC were washed twice with PBS and resuspended in RPMI1640 culture medium supplemented with 10% dialyzed heat inactivated fetal calf serum, 1.5 mM L-glutamine, 100 U penicillin/ml, and […] (all from PAN Biotech, Aidenbach, Germany). For stimulation, PBMC were seeded at 1×10^5 cells/well, activated with 2 μg/ml phytohaemagglutinin (PHA, Sigma) and incubated with the test compound. After 48 hours proliferation was measured using the BrdU based cell proliferation ELISA from Roche (Mannheim, Germany) according to the manual.
# [1] = human PBMC, 2 μg/ml PHA, read-out: D: IC50 (Tcell proliferation)
# [2] = PHA-stimulated human PBMC, column D, activity classes 1-4, read-out: IC50 (Tcell proliferation)
Structure (SMILES),IC50 [1] [nM],IC50 [2] [nM]
"CN1CCN(C(=O)c2c(-c3c(F)cccc3Cl)noc2-c2cnn(-c3cccc(Cl)c3)c2C(F)(F)F)CC1 [Example B-34, (3-(2-chloro-6-fluorophenyl)-5-(1-(3-chlorophenyl)-5-(trifluoromethyl)-1H-pyrazol-4-yl)-isoxazol-4-yl)(4-methylpiperazin-1-yl)methanone]",100 to 1000,–
"COC(=O)c1c(-c2c(F)cccc2Cl)noc1-c1cnn(-c2cccc(Cl)c2)c1C(F)(F)F [Example 11, methyl 3-(2-chloro-6-fluorophenyl)-5-(1-(3-chlorophenyl)-5-(trifluoromethyl)-1H-pyrazol-4-yl)isoxazole-4-carboxylate]",< 10,–
"CCOC(=O)c1c(-c2c(F)cccc2Cl)noc1-c1cnn(CCN2CCOCC2)c1C(F)(F)F [Example B-97, ethyl 3-(2-chloro-6-fluorophenyl)-5-(1-(2-morpholinoethyl)-5-(trifluoromethyl)-1H-pyrazol-4-yl)isoxazole-4-carboxylate]",1000 to 10000,–
"CNC(=S)c1c(-c2c(F)cccc2Cl)noc1-c1cnn(-c2cccc(Cl)c2)c1C(F)(F)F [Example 72, 3-(2-chloro-6-fluorophenyl)-5-(1-(3-chlorophenyl)-5-(trifluoromethyl)-1H-pyrazol-4-yl)-N-methylisoxazole-4-carbothioamide]",100 to 1000,–
"COC(=O)c1csc(-c2c(-c3c(F)cccc3Cl)noc2-c2cnn(-c3cccc(F)c3)c2C(F)(F)F)n1 [IB-2, methyl 2-{3-(2-chloro-6-fluorophenyl)-5-[1-(3-fluorophenyl)-5-(trifluoromethyl)-1H-pyrazol-4-yl]isoxazol-4-yl}-1,3-thiazole-4-carboxylate]",–,100 to 1000
"CC(C)NS(=O)(=O)c1cccc(-n2ncc(-c3onc(-c4c(F)cccc4Cl)c3C(=O)OC(C)C)c2C(F)(F)F)c1 [Example B-79, isopropyl 3-(2-chloro-6-fluorophenyl)-5-(1-(3-(N-isopropylsulfamoyl)phenyl)-5-(trifluoromethyl)-1H-pyrazol-4-yl)isoxazole-4-carboxylate]",100 to 1000,–
"COC(=O)c1c(-c2ccccc2F)noc1-c1cnn(-c2cccc(Cl)c2)c1C(F)(F)F [Example B-77, methyl 5-(1-(3-chlorophenyl)-5-(trifluoromethyl)-1H-pyrazol-4-yl)-3-(2-fluorophenyl)isoxazole-4-carboxylate]",10 to 100,–
"COC(=O)c1c(-c2c(F)cccc2Cl)noc1-c1cnn(-c2ccncc2)c1C(F)(F)F [Example B-69, methyl 3-(2-chloro-6-fluorophenyl)-5-(1-(pyridin-4-yl)-5-(trifluoromethyl)-1H-pyrazol-4-yl)isoxazole-4-carboxylate]",10 to 100,–
"COC(=O)c1c(-c2c(F)cccc2Cl)noc1-c1cnn(-c2cccc(Cl)c2)c1 [Example 115, methyl 3-(2-chloro-6-fluorophenyl)-5-(1-(3-chlorophenyl)-1H-pyrazol-4-yl)isoxazole-4-carboxylate]",1000 to 10000,–
"CCOC(=O)c1c(-c2c(F)cccc2Cl)noc1-c1cnn(CC2CCOCC2)c1C(F)(F)F [Example B-81, ethyl 3-(2-chloro-6-fluorophenyl)-5-(1-((tetrahydro-2H-pyran-4-yl)methyl)-5-(trifluoromethyl)-1H-pyrazol-4-yl)isoxazole-4-carboxylate]",100 to 1000,–
"Cc1nnc(-c2c(-c3c(F)cccc3Cl)noc2-c2cnn(-c3cccc(Cl)c3)c2C(F)(F)F)o1 [IB-4, 2-(3-(2-chloro-6-fluorophenyl)-5-(1-(3-chlorophenyl)-5-(trifluoromethyl)-1H-pyrazol-4-yl)isoxazol-4-yl)-5-methyl-1,3,4-oxadiazole]",–,< 10
"CCOC(=O)c1c(-c2c(F)cccc2Cl)noc1-c1cnn(-c2ccccc2C#N)c1C(F)(F)F [Example B-44, ethyl 3-(2-chloro-6-fluorophenyl)-5-(1-(2-cyanophenyl)-5-(trifluoromethyl)-1H-pyrazol-4-yl)-isoxazole-4-carboxylate]",1000 to 10000,–
"Fc1cccc(Cl)c1-c1noc(-c2cnn(-c3cccc(Cl)c3)c2C(F)(F)F)c1-c1ccco1 [IB-6, 3-(2-chloro-6-fluorophenyl)-5-(1-(3-chlorophenyl)-5-(trifluoromethyl)-1H-pyrazol-4-yl)-4-(furan-2-yl)isoxazole]",–,< 10
"CC(C)=NNC(=O)c1c(-c2c(F)cccc2Cl)noc1-c1cnn(-c2cccc(F)c2)c1 [Example B-29, 3-(2-chloro-6-fluorophenyl)-5-(1-(3-fluorophenyl)-1H-pyrazol-4-yl)-N′-(propan-2-ylidene)isoxazole-4-carbohydrazide]",1000 to 10000,–
"COC(=O)c1c(-c2ccccc2)noc1-c1cnn(-c2cccc(Cl)c2)c1C(F)(F)F [Example B-30, methyl 5-(1-(3-chlorophenyl)-5-(trifluoromethyl)-1H-pyrazol-4-yl)-3-phenylisoxazole-4-carboxylate]",100 to 1000,–
COC(=O)c1c(-c2c(F)cccc2Cl)noc1-c1cnn(-c2ncc(C(F)(F)F)cc2Cl)c1C(F)(F)F [Example 87],1000 to 10000,–
"CCOC(=O)c1c(-c2c(Cl)cncc2Cl)noc1-c1cnn(-c2cccnc2)c1C(F)(F)F [Example B-12, ethyl 3-(3,5-dichloropyridin-4-yl)-5-(1-(pyridin-3-yl)-5-(trifluoromethyl)-1H-pyrazol-4-yl)isoxazole-4-carboxylate]",100 to 1000,–
"CO/C(=N\c1c(-c2c(F)cccc2Cl)noc1-c1cnn(-c2cccc(F)c2)c1C(F)(F)F)C(F)(F)F [Example 136, (Z)-methyl N-(3-(2-chloro-6-fluorophenyl)-5-(1-(3-fluorophenyl)-5-(trifluoromethyl)-1H-pyrazol-4-yl)isoxazol-4-yl)-2,2,2-trifluoroacetimidate]",100 to 1000,–
"Fc1cccc(Cl)c1-c1noc(-c2cnn(-c3cccc(Cl)c3)c2C(F)(F)F)c1-c1nnco1 [IB-5, 2-(3-(2-chloro-6-fluorophenyl)-5-(1-(3-chlorophenyl)-5-(trifluoromethyl)-1H-pyrazol-4-yl)isoxazol-4-yl)-1,3,4-oxadiazole]",–,< 10
"Fc1ccccc1-n1ncc(-c2onc(-c3c(F)cccc3Cl)c2Br)c1C(F)(F)F [Example B-26, 4-bromo-3-(2-chloro-6-fluorophenyl)-5-(1-(2-fluorophenyl)-5-(trifluoromethyl)-1H-pyrazol-4-yl)isoxazole]",1000 to 10000,–
"COC(=O)c1c(-c2ccccc2Cl)noc1-c1cnn(-c2cccc(F)c2)c1C(F)(F)F [Example 95, methyl 3-(2-chlorophenyl)-5-(1-(3-fluorophenyl)-5-(trifluoromethyl)-1H-pyrazol-4-yl)isoxazole-4-carboxylate]",< 10,–
"CCOC(=O)c1c(-c2c(F)cccc2Cl)noc1-c1cnn(-c2ccc([N+](=O)[O-])cc2)c1C(F)(F)F [Example B-94, ethyl 3-(2-chloro-6-fluorophenyl)-5-(1-(4-nitrophenyl)-5-(trifluoromethyl)-1H-pyrazol-4-yl)isoxazole-4-carboxylate]",1000 to 10000,–
"COC(=O)c1c(-c2c(F)cccc2Cl)noc1-c1cnn(-c2nc(-c3ccc(F)cc3)cs2)c1C(F)(F)F [Example 54, methyl 3-(2-chloro-6-fluorophenyl)-5-(1-(4-(4-fluorophenyl)thiazol-2-yl)-5-(trifluoromethyl)-1H-pyrazol-4-yl)isoxazole-4-carboxylate]",1000 to 10000,–
"O=C(c1c(-c2c(F)cccc2Cl)noc1-c1cnn(-c2ccccc2F)c1C(F)(F)F)N1CCOCC1 [Example 16, (3-(2-chloro-6-fluorophenyl)-5-(1-(2-fluorophenyl)-5-(trifluoromethyl)-1H-pyrazol-4-yl)isoxazol-4-yl)(morpholino)methanone]",1000 to 10000,–
"O=C(O)c1c(-c2c(F)cccc2Cl)noc1-c1cnn(Cc2ccccc2F)c1C(F)(F)F [Example B-86, 3-(2-chloro-6-fluorophenyl)-5-(1-(2-fluorobenzyl)-5-(trifluoromethyl)-1H-pyrazol-4-yl)isoxazole-4-carboxylic acid]",1000 to 10000,–
"Fc1ccccc1-n1ncc(-c2onc(-c3c(F)cccc3Cl)c2-c2ccoc2)c1C(F)(F)F [IB-9, 3-(2-chloro-6-fluorophenyl)-5-(1-(2-fluorophenyl)-5-(trifluoromethyl)-1H-pyrazol-4-yl)-4-(furan-3-yl)isoxazole]",–,100 to 1000
"COC(=O)c1c(-c2c(F)cccc2Cl)noc1-c1cnn(-c2ccccc2I)c1C(F)(F)F [Example 88, methyl 3-(2-chloro-6-fluorophenyl)-5-(1-(2-iodophenyl)-5-(trifluoromethyl)-1H-pyrazol-4-yl)isoxazole-4-carboxylate]",1000 to 10000,–
"CCOC(=O)c1c(-c2ccc(Cl)cc2Cl)noc1-c1cnn(-c2cccc(F)c2)c1C(F)(F)F [Example 112, ethyl 3-(2,4-dichlorophenyl)-5-(1-(3-fluorophenyl)-5-(trifluoromethyl)-1H-pyrazol-4-yl)isoxazole-4-carboxylate]",100 to 1000,–
"COC(=O)c1c(-c2c(F)cccc2Cl)noc1-c1cnn(-c2cccc(NC(C)=O)c2)c1C(F)(F)F [Example B-89, 5-(1-(3-acetamidophenyl)-5-(trifluoromethyl)-1H-pyrazol-4-yl)-3-(2-chloro-6-fluorophenyl)isoxazole-4-carboxylate]",100 to 1000,–
"COC(=O)c1c(-c2c(F)cccc2Cl)noc1-c1cnn(-c2cc(C)nc(C)n2)c1C(F)(F)F [Example 119, methyl 3-(2-chloro-6-fluorophenyl)-5-(1-(2,6-dimethylpyrimidin-4-yl)-5-(trifluoromethyl)-1H-pyrazol-4-yl)isoxazole-4-carboxylate]",100 to 1000,–
